Laboratory results from publication PMC3617544 (The Open Medicinal Chemistry Journal, 2013).

Tests used:
[1] = molecular target: T1, BACE-1 (Homo sapiens, UniProt P56817); assay: BACE-1 enzyme assay; assay type: biochemical
[2] = molecular target: T1, BACE-1; assay: BACE-1 cell assay; settings: HEK293, read-out: percent inhibition of BACE-1 in cell-based assay

T1 sequence (P56817 46-501): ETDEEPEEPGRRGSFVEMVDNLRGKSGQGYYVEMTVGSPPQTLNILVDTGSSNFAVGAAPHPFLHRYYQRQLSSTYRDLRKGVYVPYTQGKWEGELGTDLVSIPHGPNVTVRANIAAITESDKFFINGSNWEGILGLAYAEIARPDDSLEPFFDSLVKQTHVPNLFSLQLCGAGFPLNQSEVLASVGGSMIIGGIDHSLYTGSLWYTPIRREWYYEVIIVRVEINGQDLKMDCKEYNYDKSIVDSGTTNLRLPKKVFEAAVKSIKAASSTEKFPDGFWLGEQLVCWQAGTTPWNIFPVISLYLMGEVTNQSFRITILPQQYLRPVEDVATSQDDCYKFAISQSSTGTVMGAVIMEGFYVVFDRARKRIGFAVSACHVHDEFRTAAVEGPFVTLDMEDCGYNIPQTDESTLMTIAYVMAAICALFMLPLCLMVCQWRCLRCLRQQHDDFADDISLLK

Row | Structure (SMILES) | IC50 [1] | inhibition at 1 µM [2]
1 | CO[C@H](C[C@H](O)[C@@H](N)COc1cccc(OCc2ccccc2)c1)C(=O)N[C@H](C(=O)NCc1ccccc1)C(C)C [Compound 17, (2R,4S,5S)-5-Amino-6-(3-benzyloxy-phenoxy)-4-hydroxy-2-methoxy-hexanoic acid ((S)-1-benzylcarbamoyl-2-methyl-propyl)-amide] | > 10 µM | 
2 | CO[C@H](C[C@H](O)[C@H](COc1ccc(OCc2ccccc2)cc1)NC(=O)c1cccc(N(C)S(C)(=O)=O)c1)C(=O)N[C@H](C(=O)NCc1ccccc1)C(C)C [Compound 19, N-[(1S,2S,4R)-4-((S)-1-Benzylcarbamoyl-2-methyl-propylcarbamoyl)-1-(4-benzyloxy-phenoxymethyl)-2-hydroxy-4-methoxy-butyl]-3-(methanesulfonyl-methyl-amino)-benzamide] | 4.6 µM | 
3 | COCCCOc1cc(OC[C@H](N)[C@@H](O)C[C@@H](OC)C(=O)N[C@H](C(=O)NCc2ccc(Cl)cc2)C(C)C)ccc1-c1ccc(F)cc1 [Compound 20, (2R,4S,5S)-5-Amino-6-[4'-fluoro-2-(3-methoxy-propoxy)-biphenyl-4-yloxy]-4-hydroxy-2-methoxy-hexanoic acid [(S)-1-(4-chloro-benzylcarbamoyl)-2-methyl-propyl]-amide] | 2.7 µM | 
4 | CC[C@H](C)[C@H](NC(=O)[C@@H](C[C@H](O)[C@@H](N)COc1ccc(-c2ccc(F)cc2)cc1)OC)C(=O)NCc1ccc(Cl)cc1 [Compound 23, (2R,4S,5S)-5-Amino-6-(4'-fluoro-biphenyl-4-yloxy)-4-hydroxy-2-methoxy-hexanoic acid [(1S,2S)-1-(4-chloro-benzylcarbamoyl)-2-methyl-butyl]-amide] | > 10 µM | 

Stronger by IC50 [1], values ahead:

Row | IC50 [1] | inhibition at 1 µM [2] | Structure (SMILES)
5 | 0.069 µM | 3% | CC[C@H](C)[C@H](NC(=O)[C@@H](C[C@H](O)[C@H](COc1ccc(-c2ccccc2)c(OCCCOC)c1)NC(=O)c1cc(C(=O)N[C@H](C)c2ccccc2)cc(N(C)S(C)(=O)=O)c1)OC)C(=O)NCc1ccc(Cl)cc1 [Compound 25, N-{(1S,2S,4R)-4-[(1S,2S)-1-(4-Chloro-benzylcarbamoyl)-2-methyl-butylcarbamoyl]-2-hydroxy-4-methoxy-1-[2-(3-methoxypropoxy)-biphenyl-4-yloxymethyl]-butyl}-5-(methanesulfonyl-methyl-amino)-N'-((R)-1-phenyl-ethyl)-isophthalamide]
6 | 0.3 µM | 14% | CC[C@H](C)[C@@H](CNc1ccc(Cl)cc1)NC(=O)[C@H](Cc1ccccc1)C[C@H](O)[C@@H](N)COc1ccc(-c2ccc(F)cc2)c(OCCCOC)c1 [Compound 28, (2R,4S,5S)-5-amino-2-benzyl-N-((2S,3S)-1-(4-chlorophenylamino)-3-methylpentan-2-yl)-6-(4'-fluoro-2-(3-methoxypropoxy)biphenyl-4-yloxy)-4-hydroxyhexanamide]
7 | 0.54 µM | 28% | CC[C@H](C)[C@@H](CNc1ccc(Cl)cc1)NC(=O)[C@@H](C[C@H](O)[C@@H](N)COc1ccc(-c2ccc(F)cc2)c(OCCCOC)c1)C(C)C [Compound 30, (2S,4S,5S)-5-amino-N-((2S,3S)-1-(4-chlorophenylamino)-3-methylpentan-2-yl)-6-(4'-fluoro-2-(3-methoxypropoxy)bi-phenyl-4-yloxy)-4-hydroxy-2-isopropylhexanamide]
